Test results: patent publication US20230088704A1, “A PHARMACEUTICAL COMBINATION FOR THE TREATMENT OF A CANCER” (ABILITY PHARMACEUTICALS S.L., priority 2020, published 2023)

Legend:
[1] = tested on: LA1-5S cells; assay: Cell viability (crystal violet), ABTL0812 with irinotecan; type: cell-based; details: ABTL0812 30 μM + irinotecan 4, 8, 16 μM; 72 hours
Description: Methods: LA1-5S cells were incubated with increasing concentrations of irinotecan (4 μM, 8 μM and 16 μM) and a fixed concentration of ABTL0812 (30 μM). Cells were treated for 72 hours in IMDM with 0.5% FBS. Cell viability was evaluated by crystal violet assay. Data is presented as mean±SEM of three independent experiments. Statistical analyses were performed according to the T-Test principle with GraphPad Prism® 5.0 software (*p<0.05; **p<0.01; ***p<0.001).

[2] = tested on: PMA-activated THP-1 macrophages; assay: Conditioned media of ABTL0812-treated MiaPaca2 cells on THP-1 macrophages; type: cell-based, human; details: conditioned media from MiaPaca2 cells treated with ABTL0812 40 μM 72 hours
Description: Methods: MiaPaca2 cells were incubated with 40 μM of ABTL0812 during 72 hours and conditioned media (RPMI) of these ABTL0812-treated cells were collected. In parallel, human THP-1 cells were differentiated to macrophages by incubation with PMA (Phorbol myristate acetate) for 24 hours, inducing their attachment to the plates. Then, conditioned media from ABTL0812-treated MiaPaca2 cells was transferred to PMA-activated THP-1 macrophages and incubated during 24 hours for RT-qPCR analysis of M1 phenotype markers IL-1β and TNF-α, or during 48 hours for cell viability studies using the MTT assay. For M1 marker analysis, cells were collected, RNA extracted, retrotranscribed to cDNA and mRNA levels of IL-1β and TNF-α assessed by RT-qPCR.

[3] = tested on: Human pancreatic cancer cells; assay: Immunogenic cell death (ICD) hallmarks; type: cell-based; details: ABTL0812 0 to 150 μM; 24 hours
Description: Methods: Human pancreatic cancer cells were treated with increasing concentrations of ABTL0812 (ranging from 0 to 150 μM) for 24 hours, and ICD hallmarks extracellular Hmgb1 and ATP, surface Calreticulin, and caspases 3 and 8 activation, were evaluated by ELISA (Hmgb1 and ATP), flow cytometry (Calreticulin) and immunoblotting (Caspases 3 and 8). For extracellular Hmgb1 and ATP, culture media from ABTL0812 treated cells were collected and incubated with specific antibodies for further detection using colorimetric assay. For surface Calreticulin, cancer cells were collected and incubated with specific antibody for further detection using flow cytometry. For Caspase 3 and 8 activation, cancer cells were collected, protein lysate obtained, incubated with specific antibodies for further detection using immunoblotting and finally quantified using densitometry.

[4] = tested on: LA1-5S cells; assay: Cell viability (crystal violet), ABTL0812 with cyclophosphamide; type: cell-based; details: ABTL0812 30 μM + cyclophosphamide 1, 1.5, 2 μM; 72 hours
Description: Methods: LA1-5S cells were incubated with increasing concentrations of cyclophosphamide (1 μM, 1.5 μM and 2 μM) and a subIC50 fixed concentration of ABTL0812 (30 μM). Cells were treated for 72 hours in IMDM with 0.5% FBS. Cell viability was evaluated by crystal violet assay. Data is presented as mean±SEM of three independent experiments. Statistical analyses were performed according to the T-Test principle with GraphPad Prism® 5.0 software (*p<0.05; **p<0.01; ***p<0.001).

[5] = tested on: Ishikawa endometrial cancer cells; assay: Co-culture of ABTL0812-treated cancer cells with activated T cells, MTT; type: cell-based, human; details: ABTL0812 50 μM 6 hours, then co-culture with activated T lymphocytes 24 hours
Description: Methods: human PBMCs were purified from peripheral blood of healthy donors using Ficoll and cultured in vitro. Human T cells were activated by incubation with IL-2 and CD3 and CD28 antibodies for 10 days. In parallel, Ishikawa endometrial cancer cells were treated with ABTL0812 at 50 μM for 6 hours and then co-cultured with activated T lymphocytes for 24 hours. Then, cell viability was assessed by the MTT assay. Untreated Ishikawa cells were used as controls.

[6] = tested on: LLC1 cells; assay: Syngeneic lung cancer model, subcutaneous LLC1, tumor volume; type: in vivo, C57BL6 mice; details: ABTL0812 oral 120 mg/kg/day; anti-PD1 i.p. 100 μg/dose every three days; carboplatin and paclitaxel i.p. once a week
Description: C57BL6 mice were injected with 0.25×10^6 LLC1 cells in one flank to induce tumor formation. […] Tumor volume and body weight were monitored 3 times a week.

[7] = tested on: U87MG cells; assay: Human glioblastoma orthotopic xenograft, ABTL0812 with radiotherapy; type: in vivo, nude mice
Description: Methods: Mice were intra-cerebrally injected with luciferase transfected U87MG cells. Animals were randomized 5 days after cell inoculation and treatments started. ABTL0812 was administered orally at 240 mg/kg 5 days/week and radiotherapy as single dose of 4 Gy administered at day 10.
Tumors were measured by quantification of bioluminescence intensity (BLI) of the region of interest.

[8] = tested on: endometrial carcinogenesis induced by the deletion of PTEN; assay: Endometrial carcinogenesis induced by PTEN deletion; type: in vivo, mice; details: ABTL0812 120 mg/kg daily during 3 weeks
Description: Methods: Mice were injected with tamoxifen to induce PTEN deletion. Three weeks after tamoxifen administration, when animal has developed hyperplasias, animals were administered with ABTL0812 at 120 mg/kg daily or with vehicle during 3 weeks. At that time, vehicle treated animals (6 weeks after tamoxifen injection) develop neoplasias, which are quantified by immunohistochemistry of extracted uterus. After ABTL0812 treatment, animals were sacrificed, uterus extracted in paraffin-embedded for further immunohistochemical analysis by hematoxylin-eosin staining for carcinogenesis evaluation or with anti-CD3 to evaluate T lymphocyte infiltration within tumoral lesions, indicative of tumor microenvironment immunomodulation.

[9] = tested on: PD1; assay: PD1 expression in primary T cells by flow cytometry; type: cell-based, human; details: 6 hours
Description: Methods: Human PBMCs were purified from peripheral blood of healthy donors using Ficoll and cultured in vitro. Human T cells were activated by incubation with IL-2 and CD3 and CD28 antibodies for 10 days and then treated with ABTL0812 for 6 hours. Finally, levels of PD1 expressed in the membrane of T cells was analyzed by flow cytometry using specific antibodies. Results are indicated as % of positive cells and show the average of three independent experiments (t-test **p<0.01 and ***p<0.001).

SMILES: CCCCC/C=C\C/C=C\CCCCCCC(O)C(=O)O (stereo not drawn) [ABTL0812, COOH—CHOH—(CH2)6—(CH═CH—CH2)2—(CH2)3—CH3]
- irinotecan cytotoxicity on addition of ABTL0812 [1]: significantly increased irinotecan cytotoxicity
- gene expression of IL-1β ([2]; 24 hours on macrophages): significantly increasing the gene expression
- gene expression of TNF-α ([2]; 24 hours on macrophages): significantly increasing the gene expression
- THP-1 cell viability (MTT) ([2]; 48 hours on macrophages): significantly increasing THP-1 cell viability
- Caspase 3 and 8 activation [3]: dose dependent increase
- extracellular ATP [3]: dose dependent increase
- extracellular Hmgb1 [3]: dose dependent increase
- surface Calreticulin [3]: dose dependent increase
- cyclophosphamide cytotoxicity on addition of ABTL0812 [4]: significantly increased cyclophosphamide cytotoxicity at 1 μM
- cytotoxic effect of activated T cells on cancer cells [5]: potentiates the cytotoxic effect of activated T cells
- tumor volume [6]: significantly reduced tumor volume
- disease-free survival, single agent ([7]; ABTL0812 oral 240 mg/kg 5 days/week): significantly increased the disease-free survival
- disease-free survival, combination with radiotherapy ([7]; ABTL0812 oral 240 mg/kg 5 days/week + radiotherapy single dose 4 Gy at day 10): significantly more efficacious than the single treatments
- development of endometrial intraepithelial neoplasias (EIN) [8]: significant reduction in the development of endometrial intraepithelial neoplasias
- CD3 T lymphocyte infiltration ([8]; anti-CD3 immunohistochemistry): induce the infiltration of CD3 T lymphocytes within tumoral lesions
- animals with hyperplasias ([8]; hematoxylin-eosin staining): 80%
- PD1 expression ([9]; activated (IL-2, CD3 and CD28 antibodies) human primary CD4 and CD8 T lymphocytes): induces the inhibition of PD1 expression
- PD1 expression ([9]; non-activated human primary CD4 and CD8 T lymphocytes): induces the inhibition of PD1 expression
